Data reported in EP3974434B1, “MACROLIDE DERIVATIVES, PREPARATION METHOD AND APPLICATION THEREOF” (Zhejiang Hisun Pharmaceutical Co., Ltd., priority 2019, dated 2020).

Tests used:
[1] = tested on: H2228 (human lung cancer cells); test: Cell proliferation assay (CellTiter-Glo), H2228; type: cell-based; settings: NCI-H2228, 72 hours, EML4-ALK fusion
Excerpt: The following method was used to determine the effects of the compounds of the present invention on cell proliferation. H2228 cells (containing EML4-ALK fusion) were purchased from Cell Resource Center of Shanghai Institutes for Biological Sciences, Chinese Academy of Sciences. KARPAS-299 cells (containing NPM-ALK fusion) were purchased from Nanjing COBIOER Biotechnology Co., Ltd. The above two cell lines were used to determine the inhibition of the compounds on cell activities. The cells were cultured in an RPMI 1640 medium containing 10% fetal bovine serum, 100 U penicillin, 100 µg/mL streptomycin, and 1 mM Sodium Pyruvate. The cells were cultured in a 5% CO2 incubator at 37°C. The activity of the cells was determined by CellTiter-Glo® Luminescent Cell Viability Assay kit (Promega, article number: G7573).
The experimental methods were operated according to the steps in the kit instruction, and were briefly described as follows: a test compound was first dissolved in DMSO to prepare a storage solution, and then diluted in gradient with the corresponding cell culture medium to prepare a test sample. […] After the culture, 50 µL of CellTiter-Glo detection solution was added to each well, shaken for 5 minutes, and then stood for 10 minutes, and the luminescence values of each well were read on the microplate reader using a Luminance mode. […]

TRKC(G623R) = target: T1, TRKC(G623R) (Homo sapiens, UniProt Q16288, G623R); test: HTRF KinEASE-TK kinase activity inhibition assay, TRKC(G623R); type: biochemical; settings: ATP 100 µM
T1 construct: purchased SignalChem N18-12CH-10
Excerpt: The following method was used to determine the inhibition degrees of the compounds of the present invention on the activity of recombinant human NTRK family kinase in vitro. In this method, HTRF®KinEASE-TK tyrosine kinase kit (article number: 62TK0PEB) of Cisbio company was used, and the principle of the kit was based on time-resolved fluorescence resonance energy transfer (TF-FRET), and the inhibition of the compounds on the activity of the NTRK kinase was reflected by determining a phosphorylation degree of a biotinylated polypeptide substrate mediated by NTRK kinase. For detailed experimental operation, please refer to the kit instruction. Recombinant human wild-type NTRK proteins were purchased from Carna bioscience (the article numbers were TRKA #08-186, TRKB #08-187 and TRKC #08-197 respectively), and recombinant human mutant NTRK proteins were purchased from SignalChem (the article numbers were TRKA G595R #N16-12BG-10, TRKA G667C # N16-12CG-10, and TRKC G623R # N18-12CH-10 respectively).
The experimental methods were operated according to the steps in the kit instruction, and were briefly described as follows: a test compound was first dissolved in DMSO to prepare a storage solution, and then diluted in gradient with a buffer provided in the kit. A final concentration of the test compound in the reaction system ranged from 1,000 nM to 0.004 nM. An ATP Km value concentration of each NTRK protein was determined by using an ATP solution diluted in gradient (Sangon Biotech (Shanghai) Co., Ltd., A600311). According to the Km value obtained, the ATP concentrations in the reaction system were set as 100 µM for TRKA, 10 µM for TRKB, 50 µM for TRKC, 7 µM for TRKA(G595R), 1 µM for TRKA(G667C) and 100 µM for TRKC(G623R). The reaction was carried out in a 384-well microplate. Firstly, the compound and a certain amount of corresponding NTRK protein were added to the wells and incubated for 5 minutes to 10 minutes at room temperature. Then, the ATP solution and the biotinylated polypeptide substrate solution were added to the reaction solution and incubated with shaking at room temperature for 60 minutes. […] After incubation, fluorescence intensity values of each well at an excitation wavelength of 304 nm, and emission wavelengths of 620 nm and 665 nM were determined in a TF-FRET mode on a microplate reader. Compared with the fluorescence intensity ratio of a control group (0.1% DMSO), the percentage inhibition rates of the compound at each concentration were calculated, and the IC50 value of the compound was obtained by performing nonlinear regression analysis for logarithmic value of the compound concentration - inhibition rate by GraphPad Prism 5 software, which can be seen in Table 1. […]

T1 sequence (Q16288 32-839 G623R): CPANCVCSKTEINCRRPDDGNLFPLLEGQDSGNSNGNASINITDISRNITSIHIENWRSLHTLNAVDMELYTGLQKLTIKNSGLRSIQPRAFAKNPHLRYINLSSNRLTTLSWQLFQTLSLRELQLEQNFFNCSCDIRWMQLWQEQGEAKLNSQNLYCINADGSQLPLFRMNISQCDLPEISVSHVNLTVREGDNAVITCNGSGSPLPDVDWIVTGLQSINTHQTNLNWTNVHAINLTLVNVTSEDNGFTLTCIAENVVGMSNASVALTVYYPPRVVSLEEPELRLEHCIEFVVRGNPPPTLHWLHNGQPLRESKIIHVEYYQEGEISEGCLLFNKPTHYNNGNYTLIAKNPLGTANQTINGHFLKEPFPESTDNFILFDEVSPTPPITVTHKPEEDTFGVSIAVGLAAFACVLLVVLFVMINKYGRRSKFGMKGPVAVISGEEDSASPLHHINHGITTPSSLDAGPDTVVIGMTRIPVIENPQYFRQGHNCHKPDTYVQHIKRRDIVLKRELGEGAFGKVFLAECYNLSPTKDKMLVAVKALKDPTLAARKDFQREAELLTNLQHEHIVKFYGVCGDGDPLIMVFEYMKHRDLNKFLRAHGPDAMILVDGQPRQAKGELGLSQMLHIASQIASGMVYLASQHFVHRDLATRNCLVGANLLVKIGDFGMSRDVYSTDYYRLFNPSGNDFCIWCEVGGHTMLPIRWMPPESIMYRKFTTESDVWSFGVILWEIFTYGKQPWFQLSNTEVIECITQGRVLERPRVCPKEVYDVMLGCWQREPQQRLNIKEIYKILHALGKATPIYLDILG

IC50 [1]: 164 nM
IC50 (TRKC(G623R)): 13.5 nM
SMILES: C[C@H]1Nc2ccn3ncc(c3n2)C(=O)NC[C@@]2(C)Cc3cc(F)cc1c3O2 [Example 8, (3R,11R)-6-fluoro-3,11-dimethyl-10-oxa-2,13,17,1 8,21-pentaazapentacyclo[13.5.2.1^8,11.0^4,9.0^18,22]tric osa-1(21),4,6,8,15(22),16,19-heptaen-14-one]
